Source: publication PMC11097166, “Imidazole-Derived Alkyl and Aryl Ethers: Synthesis, Characterization, In Vitro Anticancer and Antioxidant Activities, Carbonic Anhydrase I–II Inhibition Properties, and In Silico Studies” (ACS Omega, 2024)
Read-outs that look alike come from different tables or passages of the source.

Tests used:
[1] = tested on: MCF7 human breast adenocarcinoma cell line; assay: MTT cell viability assay on MCF7; format: cell-based
From the text: (§1) 96-well plates were used for seeding cells. […] All compounds were run in three repetitions.

[2] = tested on: L929 mouse fibroblast cell line; assay: MTT cell viability assay on L929; conditions: for IC50: read-out: IC50 L929; for toxicity in L929 healthy cell line: 100 μM, 24 h, triplicate
Method: (§5) Human breast adenocarcinoma cell line (MCF7), rat glial tumor cell line (C6), healthy mouse fibroblast cell line (L929), and colon cancer (HT29) cell line were purchased from ATCC (American type culture collection) and studied.
(§6) The cytotoxic effects of all compounds by MTT analysis on L929, HT29, MCF7, and C6 cell lines were investigated. 96-well plates were used for seeding cells. Approximately 1 × 10^4 cells were seeded in each well. Cells were allowed to adhere for 24 h, and then the compounds were applied at different concentrations. All compounds were run in three repetitions. Wells with a maximum of 100 μM compounds were incubated for 24 h. Three wells without compounds treated with only DMSO (with total volume of % 0.5) were used as negative controls, and cisplatin was used as a positive control. […] After the MTT interaction, the FRAP wells were emptied, and DMSO solution was placed in them. The formazan crystals formed were dissolved with this solution, and the number of viable cells in each well was determined by color change.

[3] = tested on: HT29 colon cancer cell line; assay: MTT cell viability assay on HT29; format: cell-based, human
From the text: as §1

[4] = tested on: C6 rat glial tumor cell line; assay: MTT cell viability assay on C6; format: cell-based; conditions: 24 h incubation
From the text: as §1

hCA II = hCA II (Homo sapiens, UniProt P00918); assay: CA esterase activity method, hCA II; format: biochemical; conditions: for Effect on hCA II isoenzyme activity: Table S3; for IC50: esterase activity, p-nitrophenyl acetate substrate; for Effect on hCA II isoenzyme activity: key: +: active; -: not effect
From the text: (§2) The method used to spectrophotometrically detect the antiepileptic, antiglaucoma, and […] effects of the obtained compounds in vitro is the esterase activity method. This method relies on the esterase activity of CA for the hydrolysis of p-nitrophenyl acetate as a substrate, which is a part of the reaction mechanism involving p-nitrophenol or p-nitrophenolate.

hCA I = hCA I (Homo sapiens, UniProt P00915); assay: CA esterase activity method, hCA I; format: biochemical; conditions: for Effect on hCA I isoenzyme activity: Table S3; for IC50: esterase activity, p-nitrophenyl acetate substrate; for Effect on hCA I isoenzyme activity: key: +: active; -: not effect
From the text: as §2

[5] = tested on: L929 mouse fibroblast cell line
Method: as §5, §6

FRAP antioxidant assay = conditions: trolox standard curve
Method: The FRAP method was used to determine the antioxidant power of compounds. This method, which determines the reducing power of compounds, was developed by Benzie and Strain.[48] Fe(III)–TPTZ complex is formed as a result of the reaction of Fe(III) with tripyridyltriazine (TPTZ), and this complex is reduced to the Fe(II)–TPTZ complex with the antioxidant in the environment. The color of this complex is dark blue and gives the maximum absorbance at 593 nm.[48] Incubation is performed for up to 30 min to complete the reaction, and the correct absorbance values were read. The FRAP values of the samples were calculated as “μmol trolox equiv/g sample” with the help of the standard curve obtained using methanol–trolox standard solutions (0; 0.2; 0.4; 0.6; 0.8; and 1.0 μmol/mL) which were used as the positive control.[49] […]

[6] = MTT cell viability assay on L929; conditions: mouse, L929 fibroblast cells
Method: as §5, §6

[7] = tested on: L929 healthy mouse fibroblast cells; assay: Annexin V binding assay (flow cytometry) on L929; format: cell-based; conditions: L929, IC50 dose of the compound for the cancer cell line, 24 h
Method: (§3) Approximately 5 × 10^5 seeds of each cancer cell were seeded into six-well plates and allowed to adhere overnight. […] Cells harvested after trypsinization were suspended in PBS containing at least 1% FBS. The manufacturer’s instructions were then followed, and the Annexin V and dead cell reagent were mixed with the cells. Afterward, the percentage of dead, viable, early and late apoptotic cells was determined using the muse cell analyzer (Millipore) device.

HT29 cell line [8] = assay: Annexin V binding assay (flow cytometry) on HT29; format: cell-based, human; conditions: HT29, IC50 dose, 24 h
Method: as §3

HT29 cell line [9] = assay: Cell cycle (DNA content) assay on HT29; format: cell-based, human; conditions: colon cancer (HT29), IC50 dose
Method: (§4) DNA content (cell cycle) analyses were performed with the MUSE flow cytometry device. When the IC50 results obtained were evaluated, compounds 3a and 3b caused selective toxicity in the HT29 and C6 cancer cell lines compared to L929, respectively. Therefore, the main pathways of compounds 3a and 3b in cells were determined with the MUSE (cell cycle) kit.

C6 cell line [10] = assay: Cell cycle (DNA content) assay on C6; format: cell-based, rat; conditions: glioblastoma (C6), IC50 dose
Method: as §4

C6 cell line [11] = assay: Annexin V binding assay (flow cytometry) on C6; format: cell-based, rat; conditions: C6, IC50 dose, 24 h
Method: as §3

[12] = Homo sapiens, MCF7, 24 h incubation
[13] = Homo sapiens, HT-29, 24 h incubation

Sequence of hCA I (P00915 whole entry): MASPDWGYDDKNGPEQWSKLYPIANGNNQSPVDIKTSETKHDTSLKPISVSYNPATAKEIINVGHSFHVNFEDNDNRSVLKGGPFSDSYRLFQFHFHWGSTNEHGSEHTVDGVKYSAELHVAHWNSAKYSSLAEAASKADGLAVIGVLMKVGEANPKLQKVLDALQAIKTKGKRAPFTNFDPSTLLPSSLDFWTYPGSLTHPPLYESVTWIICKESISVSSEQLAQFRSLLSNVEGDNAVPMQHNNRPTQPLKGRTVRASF

| Molecule | IC50 [4] [µM] | Effect on hCA II isoenzyme activity (hCA II) | Effect on hCA I isoenzyme activity (hCA I) | FRAP (FRAP antioxidant assay) [μmol trolox equiv/g] | IC50 [1, 12] [µM] | toxicity in L929 healthy cell line ([2]; MTT) | IC50 ([2]; Mus musculus, L929, 24 h) [µM] | viability at 24 h, 100 μM [6] [%] | IC50 [3, 13] [µM] | IC50 ([4]; Rattus norvegicus, 24 h) [µM] | other results |
| --- | --- | --- | --- | --- | --- | --- | --- | --- | --- | --- | --- |
| N.N.[Cl][Pt][Cl] [cisplatin, reference compound] | 88.2 ± 12.1 |  |  |  |  |  |  |  |  |  | IC50 ([1]; 24 h incubation): 26.8 ± 11 µM; IC50 ([2]; 24 h incubation, MTT): 277.7 ± 1.09 µM; IC50 ([3]; 24 h incubation): 68.2 ± 3.39 µM |
| 2-(1H-Imidazol-1-yl)-1-(4-methoxyphenyl)ethenol [Compound 4c] | 43.8 ± 5.83 | + | + | 0.29 ± 0.05 |  |  |  |  |  |  | IC50 ([1]; 24 h incubation): 101 ± 14.5 µM; IC50 ([2]; 24 h incubation, MTT): 194 ± 12.2 µM; IC50 ([3]; 24 h incubation): 88.4 ± 15.7 µM; viability on healthy cell line at maximum dose [5]: at least 50% |
| CCOC(Cn1ccnc1)c1ccccc1 (stereo not drawn) [Compound 7, 1-(2-Ethoxy-2-phenylethyl)-1H-imidazole] |  | + | + | 0.10 ± 0.08 | 122 ± 28.8 | not toxic | 173 ± 16.6 | ≥ 50 | 102 ± 11.5 | 26.1 ± 5.7 |  |
| COc1ccc(C(Cn2ccnc2)OCc2ccc(Cl)cc2)cc1 (stereo not drawn) [Compound 23, 1-(2-((4-Chlorobenzyl)oxy)-2-(4-methoxyphenyl)ethyl)-1H-imidazole] |  |  |  | 0.45 ± 0.04 |  |  |  |  |  |  | IC50 (hCA II): 0.00565 µM; IC50 (hCA I): 0.00749 µM; melting point: 104 to 105 °C |
| O=C(Cn1ccnc1)c1ccccc1 [Compound 3a, 2-(1H-Imidazol-1-yl)-1-phenylethanone] |  | - | - | 0.18 ± 0.07 | 161 ± 15.5 | not toxic | 174 ± 10.1 | ≥ 50 | 20.9 ± 1.02 | 15.76 ± 0.08 | Apoptosis profile: Live [7]: 98.37%; Apoptosis profile: Early Apop. (HT29 cell line [8]): 7.83%; Apoptosis profile: Late Apop./Dead (HT29 cell line [8]): 22.56%; Apoptosis profile: Live (HT29 cell line [8]): 60.77%; phase in which the cell cycle stopped (HT29 cell line [9]): G0/G1 phase |
| OC(Cn1ccnc1)c1ccccc1 (stereo not drawn) [Compound 4a, 2-(1H-Imidazol-1-yl)-1-phenylethanol] |  | + | + | 0.31 ± 0.01 | 104 ± 15.3 | not toxic | 166 ± 11.9 | ≥ 50 | 74.6 ± 6.67 | 35.2 ± 0.55 |  |
| O=C(Cn1ccnc1)c1ccc(Cl)cc1 [Compound 3b, 1-(4-Chlorophenyl)-2-(1H-imidazol-1-yl)ethanone] | 10.7 ± 0.38 | - | - | 0.20 ± 0.04 | 117 ± 14.5 | not toxic | 138 ± 4.06 | ≥ 50 | 59.6 ± 5.73 | 10.7 ± 0.38 | Apoptosis profile: Live [7]: 99.17%; phase in which the cell cycle stopped (C6 cell line [10]): G0/G1 phase; Apoptosis profile: Early Apop. (C6 cell line [11]): 14.96%; Apoptosis profile: Late Apop./Dead (C6 cell line [11]): 18.33%; Apoptosis profile: Live (C6 cell line [11]): 65.46% |
| Clc1ccc(COC(Cn2ccnc2)c2ccc(Cl)cc2)cc1 (stereo not drawn) [Compound 20, 1-(2-((4-Chlorobenzyl)oxy)-2-(4-chlorophenyl)ethyl)-1H-imidazole] |  |  |  | 0.31 ± 0.06 |  |  |  |  |  |  | IC50 (hCA II): 0.0109 µM; IC50 (hCA I): 0.00413 µM |
| CCCOC(Cn1ccnc1)c1ccccc1 (stereo not drawn) [Compound 8, 1-(2-Phenyl-2-propoxyethyl)-1H-imidazole] |  | + | + | 0.19 ± 0.02 |  |  |  |  |  |  |  |
| OC(Cn1ccnc1)c1ccc(Cl)cc1 (stereo not drawn) [Compound 4b, 1-(4-Chlorophenyl)-2-(1H-imidazol-1-yl)ethanol] |  | + | + | 0.25 ± 0.02 | 84.9 ± 21.5 | not toxic | 105 ± 10.1 | ≥ 50 | 44.1 ± 4.27 | 20.1 ± 0.32 |  |
